We go through 2 molecules from US20080262079A1, “Cannabinoid Compositions and Methods of Use Thereof” (priority 2004, published 2008).

Molecules are shown by their SMILES.

Series [1] relates to murine collagen-induced arthritis, a mouse model of rheumatoid arthritis. The note with it: cited from earlier work.
Series [2] deals with thioglycollate-elicited peritoneal macrophages from apoE−/− mice. Description: Transmigration assay: chemo-attraction of peritoneal macrophages to MCP-1. It counts as cell-based, mouse. The note with it: THC 0.6 ng/ml, 4 hours with 1 ng/ml mIFN-γ, 1 nM MCP-1, 90 minutes. From the text:
Early processes of atherosclerosis involve endothelial dysfunction in response to cardiovascular risk factors, which triggers the recruitment of leukocytes (monocytes/macrophages and T lymphocytes) into the vessel wall. The studies described herein address whether treatment with THC inhibited cell migration using a functional in vitro experiment. Thioglycollate-stimulated peritoneal mouse macrophages were isolated from apoE^−/− mice and assayed for their migration capacity by chemo-attraction to MCP-1.
Reagents: Synthetic delta-9-THC Marinol® (Dronanbinol, Unimed Pharmaceuticals, Inc.; Marietta Ga., USA) was dissolved at 0.1 mg/ml in 5.5.% fat milk (w/v) in water. THC (1 mg/kg per day) in 1.5% fat milk (w/v) was administered orally within drinking water. Delta-9-THC for in vitro experiments was purchased as a stock solution of 1 mg/ml in methanol (Cambridge Isotype Laboratories, Andover Mass., USA) and were further diluted in warm medium immediately before use. […]
Transmigration assay: Macrophages from the peritoneal cavity of thioglycollate-injected apoE^−/− mice were isolated 4 days post-injection and stimulated (in triplicates) for 4 hours with 1 ng/ml mIFN-γ in the presence or absence of 0.6 ng/ml THC (n=4 mice). […] Following 90 minutes of incubation, the number of migrated cells was determined by counting (blind observers) 10 microscopic fields per well.

Series [3] relates to apolipoprotein E−/− (apoE−/−) mouse model of atherosclerosis. Description: Atherosclerotic lesion size quantification in apoE−/− mice on high cholesterol diet (Sudan IV staining). It counts as in vivo. The note with it: 11 weeks high cholesterol diet, THC 1 mg/kg daily orally during last 6 weeks, vs control mice. As to the method: (§1) Reagents: Synthetic delta-9-THC Marinol® (Dronanbinol, Unimed Pharmaceuticals, Inc.; Marietta Ga., USA) was dissolved at 0.1 mg/ml in 5.5.% fat milk (w/v) in water. THC (1 mg/kg per day) in 1.5% fat milk (w/v) was administered orally within drinking water. Delta-9-THC for in vitro experiments was purchased as a stock solution of 1 mg/ml in methanol (Cambridge Isotype Laboratories, Andover Mass., USA) and were further diluted in warm medium immediately before use. For in vitro transmigration assays, all experiments were performed by adding corresponding dilutions of the THC vehicle (methanol) to the non-THC-treated controls.
Atherosclerotic lesion size quantification: Atherosclerotic lesions within the thoraco-abdominal aorta and aortic roots were analyzed by Sudan IV staining for lipid deposition. Quantification was performed by computer image analysis using the MetaMorph6 software (Zeiss, Feldbach, Switzerland) as previously described. (Kwak et al., Circulation 107, 1033-9 (2003)).

The subject of a further series is splenocytes. Nature of the series: Proliferation assay (MTS) of conA-stimulated splenocytes isolated from THC-treated mice. Format: cell-based, mouse. Particulars: cells from THC-treated vs untreated apoE−/− mice, conA 72 hours. The protocol:
Proliferation Assay: Splenocytes (SC) or lymph node cells (LNC) were isolated from THC- or milk-treated mice and cultured in 96-well plates at a concentration of 5×10^6 cells/ml. Culture medium consisted of RPMI 1640 supplemented with 25 mM HEPES buffer, 2 mM L-glutamine, 100 U/ml penicillin, 0.1 mg/ml streptomycin, and 10% heat-inactivated fetal bovine serum (FBS). Cells were stimulated in triplicates with varying concentrations of concanavalin (con A; Sigma). After 72 hours, cell proliferation was determined using a non-radioactive MTS cell proliferation assay (Promega) according to the manufacturer's guidelines.

Series [4] in a line: Blood analysis (cholesterol, triglyceride), body weight and tolerability in THC-treated apoE−/− mice. The protocol:
The anti-atherosclerotic potential of THC was tested in the apolipoprotein E^−/− (apoE^−/−) mouse model of atherosclerosis. The studies presented herein utilized delta-9-Tetrahydrocannoabinol (THC), the major component of marijuana, as its immune-modulating effects have been well-documented in several studies. (See e.g., Srivastava, Immuopharmacology 40, 179-85 (1998); Zhu, J Immunol 165, 373-80 (2000); Yuan J Neuroimmunol 133, 124-31 (2002); Lyman, J Neuroimmunol 23, 73-81 (1989); Malfait, Proc Natl Acad Sci USA 97, 9561-6 (2000)). In addition, this compound is already commercially available, for example as an anti-vomiting drug or for use in treating anorexia. Since potential novel anti-inflammatory therapies should be well tolerated and preferably devoid of psychotropic effects, a low dosage of THC (e.g., 1 mg/kg) was used for daily oral administration. […] (Chesher, et al., Pharmacol Biochem Behav 35:861-4 (1990); Brenneisen, et al., Int J Clin Pharmacol Ther 34, 446-52 (1996); Chan, et al., Fundam Appl Toxicol 30, 109-17 (1996)) To test the therapeutic effect of THC on established atherosclerosis, apoE^−/− mice were fed with a high cholesterol diet for 5 weeks, and THC was then administered during the following 6 weeks, while maintaining the cholesterol diet.
Animals: As a model of in vivo atherosclerosis, 10-week old male apolipoprotein E^−/− mice (apoE^−/−) C57BL/6 mice were used. For histological and atherosclerotic plaque development analysis, mice were fed with a high cholesterol diet (1.25% cholesterol, 0% cholate; Research Diets, New Brunswick N.J., USA) for 5 weeks or for 11 weeks (n=6 per group). THC was administered during the last 6 weeks of the 11 week diet group. In parallel, control mice (littermates) received milk without THC (n =8). For proliferation and cytokine analysis, littermate apoE^−/− mice were divided into 2 groups (control, THC; n=6 per group) and fed with a high cholesterol diet for 4 weeks. THC or milk only was administered during the last 2 weeks of diet. All animal studies were approved by the local Ethical Committee.
Blood Analysis: For measurements of cholesterol and triglyceride content, blood samples were collected at the beginning and the end of the diet. HDL and VLDL cholesterol fractions of sera were measured by fast protein lipid chromatography. THC levels in blood (after 2, 4 and 6 weeks of treatment) were measured by gas chromatography/mass spectrometry with a limit of detection of […] as previously described. (Giroud, et al. Forensic Sci Int 123, 159-64 (2001)).

The nature of series [5]: THC levels in blood serum of THC-treated mice (gas chromatography/mass spectrometry). Format: in vivo, mouse. The note with it: apoE−/− mice, THC 1 mg/kg per day orally. The protocol: as §1
In series [6] the test system is Th1 (IFN-γ, IL-12) and Th2 (IL-4, IL-10) cytokines, TGF-β. Description: Cytokine analysis by ELISA in culture supernatants of conA-stimulated lymphoid cells from THC-treated mice. It counts as cell-based, mouse. A general note: In an ELISA, binding on a coated surface is turned into a signal by an enzyme label.
Where [7] appears, read: THC 1 mg/kg per day orally, apoE−/− mice.
Where [8] appears, read: THC-treated vs control apoE−/− mice.
Where [9] appears, read: THC-treated vs untreated mice, conA 2 μg/ml, supernatant 48 hours, ELISA.

Consider `C=C(C)[C@@H]1CCC(C)=C[C@H]1c1c(O)cc(CCCCC)cc1O` [cannabidiol], for which the “proliferation and IFN-γ production of lymph node cells from treated mice (Th1 responses)” value in series [1] (collagen-induced arthritis mice) was “reduced”. The “chronic inflammation in collagen-induced arthritis” value in series [1] (mouse model of rheumatoid arthritis) is “ameliorated chronic inflammation”.
As for `CCCCCc1cc(O)c2c(c1)OC(C)(C)C1CCC(C)=CC21` (centres unmarked) [THC, delta-9-tetrahydrocannabinol], the migration of macrophages result in series [2] is reported as “significantly inhibited”. Also, in series [3], the “progression of atherosclerotic lesions within the aortic roots” value was “significantly reduced progression of atherosclerotic lesions”. Moreover, the “proliferative responses of in vitro stimulated splenocytes” value in the series with splenocytes is “significantly reduced”. For the same molecule, in series [4] (setting [7]), the deaths during treatment result is “None of the THC-treated mice died during treatment” and the unhealthy behavior entry is on record as “none showed unhealthy behavior”. In series [4] (setting [8]), the body weights result is reported as “No differences”, the serum cholesterol levels entry is on record as “No differences” and the serum triglyceride levels result is on record as “No differences”. Further, the “THC concentration in blood serum” value in series [5] turned out to be 0.6 ng/mL. The IL-4 expression entry in series [6] (THC-treated mice, conA-stimulated cells, ELISA) is recorded as “neither expression of IL-4 nor IL-12 was detectable”. The IL-12 expression result in series [6] (THC-treated mice, conA-stimulated cells, supernatant 48 hours, ELISA) is listed as “neither expression of IL-4 nor IL-12 was detectable”. Moreover, in series [6] (THC-treated vs untreated mice), the “Th1/Th2 balance (ratio of IFN-γ to IL-10 concentration)” value is on record as “shift of the Th1/Th2 balance”. Moreover, in series [6] (setting [9]), the IFN-γ production result is recorded as “significantly less” and the TGF-β production entry is listed as “modest, but not significant, downregulation”. In addition, in series [6] (THC-treated vs untreated mice, conA 2 μg/ml, supernatant 72 hours, ELISA), the IL-10 production entry is on record as “modest, but not significant, downregulation”.
